Source: patent US20040106124A1, “Methods for improving the treatment of major depression by genotyping for the gene for apolipoproteine e4 and for improving the terapeutic response of humans having major depression and carrying the gene for apolipoprotein e4” (priority 2001, published 2004)
Each block holds one compound with its values, some of them ahead of it.

Assays:
[1] = system: patients 65 years of age and older with major depression; assay: Discontinuation due to adverse events in 8-week double-blind comparison; format: in vivo, human
Experimental: (§1) All statistical analyses were performed using the SAS software package (available from SAS Institute). For clinical measures of depression (HDRS-21, HDRS-17, GDS, and CGI), analyses of covariance were performed with baseline values as the covariate, and apoE genotype (ε4 allele carrier vs. non-carder) and medication (mirtazapine, paroxetine) as the predictors. For remitter and responder analyses of clinical measures of depression, Cochran-Mantel-Haenszel statistics were used. For comparison of medication and genotype groups on baseline demographic measures, two-way analyses of variance were used.

[2] = system: patients 65 years of age and older with major depression; assay: Geriatric Depression Scale (GDS) in 8-week double-blind comparison; format: in vivo, human; details: for GDS scores, ε4 carriers compared with noncarriers / 50% reduction in GDS score, ε4 carriers compared with those without an ε4 allele / GDS scores, patients with an ε4 allele compared with those without: day 14; for GDS scores, ε4 carriers compared with noncarriers: Caucasian patients; for 50% reduction in GDS score, ε4 carriers compared with those without an ε4 allele / GDS scores, patients with an ε4 allele compared with those without / 50% reduction in GDS score, ε4 carriers compared with noncarriers: full cohort; for number of patients showing a 50% reduction in GDS, ε4 carriers compared with noncarriers / 50% reduction in GDS score, ε4 carriers compared with noncarriers: day 28; for number of patients showing a 50% reduction in GDS, ε4 carriers compared with noncarriers: Caucasian subjects
Experimental: Geriatric Depression Scale (GDS) (Yesavage, J. A. et al., J. Psychiatr. Res. 17:37-49, 1983), a self-rating scale developed specifically for rating depression in the elderly. In the GDS, a lower rating signifies less depression. GDS 50% responders are defined as subjects with a decrease on a post-baseline assessment of at least 50% as compared to baseline.
(§2) J. Psychiatr. 154:603-608, 1997.
as §1

[3] = Plasma drug concentrations in 8-week double-blind comparison
Experimental: (§3) A multi-center, randomized, double-blind, 8-week comparison of paroxetine and mirtazapine was performed for 246 nondemented, cognitively intact patients 65 years of age and older with major depression. All patients were genotyped at the apoE locus as discussed further below.
(§4) After an initial evaluation period, the mirtazapine patients started with a 15 mg dose per day. After two weeks of treatment (Day 14), patients' dosages were raised to 30 mg per day. […] Subjects who rate “Much Improved” or “Very Much Improved” on the CGI Scale I continued on the same dose they were receiving during the previous week.
(§5) For paroxetine, the dosing system was the same, except that the starting dosage was 20 mg per day, raised to 30 mg per day, and to a maximum of 40 mg per day.

[4] = system: patients 65 years of age and older with major depression; assay: Hamilton Depression Rating Scale (HDRS-17, HDRS-21) in 8-week double-blind comparison of paroxetine and mirtazapine; format: in vivo, human; details: for HDRS-21 scores, ε4 carriers compared with those without an ε4 allele: interaction p=0.033; for HDRS-17 scores, ε4 carriers compared with those without an ε4 allele: interaction p=0.036; for HDRS-21 50% responders: patients carrying an ε4 allele; for rate and onset of antidepressant response, mirtazapine compared with paroxetine: early weeks of treatment, summary of the example
Source text: Hamilton Depression Rating Scale (HDRS; 17 and 21 item versions of a structured interview) (Hamilton, M., J. Neurol. Neurosurg. Psychiatr. 23:56-62, 1960; Hamilton, M., Br. J. Soc. Clin. Psychol. 6:278-296,1967). […] In other words, a lower rating in the HDRS scale signifies less depression. In contrast, HDRS remitters, which are those patients showing the least depression, are defined as subjects who have an HDRS-17 score of less than 7 at a post-baseline visit.
as §2, §1

[5] = system: patients 65 years of age and older with major depression; assay: Mini Mental State Examination (MMSE), cognition, in 8-week double-blind comparison; format: in vivo, human; details: for mean MMSE score, ε4 carriers compared with noncarriers: week 8, full cohort, analysis of covariance
Experimental: as §3, §4, §5
This test represents a brief standardized method to grade cognitive mental status. The test assesses orientation, attention, immediate and short-term recall, language, and the ability to follow verbal and written commands. The lower the score, the lower the cognitive mental status.
To screen patients for the gene, genomic DNA was extracted from EDTA-treated whole blood using the Puregene DNA extraction kit (available from Gentra Systems). […] J. Psychiatr. 154:603-608, 1997. Genotypes were determined by two observers blind as to the clinical or neuropathological diagnosis.
All statistical analyses were performed using the SAS software package (available from SAS Institute). […] For remitter and responder analyses of clinical measures of depression, Cochran-Mantel-Haenszel statistics were used. For comparison of medication and genotype groups on baseline demographic measures, two-way analyses of variance were used.

[6] = system: patients 65 years of age and older with major depression; assay: Clinical Global Impression Scale (CGI) in 8-week double-blind comparison; format: in vivo, human; details: day 14; for CGI scores, ε4 carriers compared with those without an ε4 allele: interaction p=0.029
Source text: Clinical Global Impression Scale (CGI) (Guy, W., ECDEU Assessment Manual for Psychopharmacology, DHEW Publication No. (ADM) 76-338, rev. 1976). The CGI scale is a global 7-point rating of the severity of the illness taking into account the preceding week (CGI-Severity) and a global 7-point rating of the clinical status of the subject since baseline (CGI-Change). A responder is defined as being “Much Improved” or “Very Much Improved”—having a CGI score of at least 2 according to CGI-Change. Thus, a higher CGI-Severity score corresponds to more severe depression whereas a higher CGI-Change score corresponds to lessened depression, or an improvement in alleviating the symptoms of depression.
as §2, §1

[7] = day 14, Caucasian patients, p=0.006
[8] = day 14, patients with an ε4 allele, full cohort

plasma drug concentrations, ε4 carriers compared with non-ε4 carriers ([3]; in vivo): no differences
mean MMSE score, ε4 carriers compared with noncarriers [5]: no effect
Compound: CN1CCN2c3ncccc3Cc3ccccc3C2C1 (stereo not shown) [mirtazapine, 1,2,3,4,10,14b-hexahydro-2-methylpyrazino [2,1-a]pyrido[2,3-c]benzazepine]
number of patients who discontinued due to adverse events, ε4 carriers compared with noncarriers ([1]; in vivo): no significant differences
GDS scores, ε4 carriers compared with noncarriers [2]: significantly lower
50% reduction in GDS score, ε4 carriers compared with those without an ε4 allele [2]: significantly more likely
GDS scores, patients with an ε4 allele compared with those without [2]: large decrease
number of patients showing a 50% reduction in GDS, ε4 carriers compared with noncarriers [2]: significantly more
50% reduction in GDS score, ε4 carriers compared with noncarriers [2]: significantly more
improvement in HDRS-17 scores, mirtazapine-treated compared with paroxetine-treated patients ([4]; day 7, full cohort): significantly greater improvement
HDRS scores, improvement of ε4 carriers compared with noncarriers ([4]; day 14, Caucasian patients): greater improvement
mean HDRS-17 scores, mirtazapine compared with paroxetine [4, 7]: significantly lower
mean HDRS-21 scores, mirtazapine compared with paroxetine [4, 7]: significantly lower
percentage of ε4 carriers responding to medication treatment (50% reduction in HDRS-17, HDRS-21, HDRS-17 remission, 50% reduction in GDS), mirtazapine compared with paroxetine ([4]; day 14, Caucasian subjects): greater
improvement in HDRS-17 scores, mirtazapine-treated compared with paroxetine-treated patients ([4]; day 14, full cohort): Significantly greater improvement
improvement in HDRS-21 scores, mirtazapine-treated compared with paroxetine-treated patients ([4]; day 14, full cohort): Significantly greater improvement
HDRS-21 scores, ε4 carriers compared with those without an ε4 allele ([4]; day 14, full cohort): significantly lower scores
HDRS-17 scores, ε4 carriers compared with those without an ε4 allele ([4]; day 14, full cohort): significantly lower scores
HDRS-17 50% responders, ε4 carriers compared with those without an ε4 allele ([4]; day 14, full cohort, p=0.049): significantly more
HDRS-21 50% responders ([4]; day 14, full cohort): 48%
HDRS-17 remitters [4, 8]: 28%
HDRS-17 remitters ([4]; day 14, patients without an ε4 allele, full cohort): 7.1%
rate and onset of antidepressant response, mirtazapine compared with paroxetine [4]: higher rate of antidepressant response
CGI scores, ε4 carriers compared with noncarriers ([6]; Caucasian patients): significantly better
CGI scores, mirtazapine treated compared with paroxetine treated subjects ([6]; Caucasian patients, p=0.037): significantly better
improvement in CGI scores, mirtazapine-treated compared with paroxetine-treated patients ([6]; full cohort): Significantly greater improvement
CGI scores, ε4 carriers compared with those without an ε4 allele ([6]; full cohort): significantly lower scores

plasma drug concentrations, ε4 carriers compared with non-ε4 carriers ([3]; Caucasian subjects): no differences
plasma drug concentrations, ε4 carriers compared with non-ε4 carriers ([3]; full cohort): no differences
MMSE score, subjects with an ε4 allele compared with those without ([5]; Caucasian subjects, trend, p=0.05): lower MMSE score
mean MMSE score, ε4 carriers compared with noncarriers [5]: significantly lower
Compound: Fc1ccc([C@@H]2CCNC[C@H]2COc2ccc3c(c2)OCO3)cc1 [paroxetine]
number of patients who discontinued due to adverse events, ε4 carriers compared with noncarriers ([1]; Caucasian subjects): no significant differences
number of patients who discontinued due to adverse events, ε4 carriers compared with noncarriers ([1]; full cohort): no significant differences
GDS scores, ε4 carriers compared with noncarriers [2]: no effect
50% reduction in GDS score, ε4 carriers compared with those without an ε4 allele [2]: no difference
GDS scores, patients with an ε4 allele compared with those without [2]: no significant difference
number of patients showing a 50% reduction in GDS, ε4 carriers compared with noncarriers [2]: no significant effect
50% reduction in GDS score, ε4 carriers compared with noncarriers [2]: no effect
HDRS scores, improvement of ε4 carriers compared with noncarriers ([4]; day 14, Caucasian patients): less improvement
HDRS-21 scores, ε4 carriers compared with those without an ε4 allele ([4]; day 14, full cohort): higher scores
HDRS-17 scores, ε4 carriers compared with those without an ε4 allele ([4]; day 14, full cohort): higher scores
HDRS-21 50% responders ([4]; day 14, full cohort): none
HDRS-17 50% responders (50% decrease in HDRS-17 score over baseline) [4, 8]: none
HDRS-17 remitters [4, 8]: none
rate and onset of antidepressant response, mirtazapine compared with paroxetine [4]: slower onset of anti-depressant action
CGI scores, ε4 carriers compared with noncarriers ([6]; Caucasian patients): no differences
CGI scores, ε4 carriers compared with those without an ε4 allele ([6]; full cohort): higher scores
